pEC50: −log10 of the molar value.

A word on the Emax: it is the size of the effect at its maximum, as opposed to the concentration needed. Usually pEC50 stands for the EC50 on a negative log10 scale, so that one unit is a factor of ten.

In this experiment the target is T1, Human M4 (Homo sapiens, UniProt P08173).
T1 construct: expressed in transfected cells
T1 sequence (P08173 1-479): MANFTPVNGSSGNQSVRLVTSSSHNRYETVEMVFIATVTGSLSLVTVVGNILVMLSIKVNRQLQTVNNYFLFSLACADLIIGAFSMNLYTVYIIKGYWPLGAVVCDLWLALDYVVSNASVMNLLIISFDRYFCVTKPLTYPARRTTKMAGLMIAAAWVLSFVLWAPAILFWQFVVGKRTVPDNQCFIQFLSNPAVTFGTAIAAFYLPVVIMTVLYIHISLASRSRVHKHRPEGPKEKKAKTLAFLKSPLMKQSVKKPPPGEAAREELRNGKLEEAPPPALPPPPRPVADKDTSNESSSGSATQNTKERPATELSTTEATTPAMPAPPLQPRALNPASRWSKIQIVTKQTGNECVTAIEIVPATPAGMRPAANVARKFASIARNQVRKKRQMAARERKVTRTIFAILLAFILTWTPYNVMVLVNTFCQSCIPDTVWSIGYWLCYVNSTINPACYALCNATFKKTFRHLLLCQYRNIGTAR
Briefly: mAChR M4 cell-based functional assay (calcium flux, potentiation of EC20 acetylcholine response), hM4-Gqi5 CHO-K1 cells. The note with it: Table 3; for Emax at 30 µM: CHO-K1, Human M4, % ACh maximum at 30 μM, read-out: Emax (% ACh maximum at 30 μM); for pEC50: potentiation of EC20 acetylcholine response, calcium flux, CHO-K1 cells, read-out: Human M4 EC50. In short, it runs like this:
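CHO-K1 cells stably expressing human M4 with chimeric Gqi5, loaded with Fluo-4 AM 50 min at 37 °C; calcium flux read by FDSS. 11-point 1:3 compound curves added, then EC20 acetylcholine at 144 s; potentiation of the EC20 response fitted by four-parameter logistic to give EC50 and Emax.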
(Calcium flux is commonly read through the fluorescence of an indicator in the cells.)

On to `Cc1c(N2CCc3ncc(-c4ccc(N5CCN(C)CC5)cc4)cc3C2)nn2cnnc2c1C` [Compound 224, 6-(7,8-dimethyl-[1,2,4]triazolo[4,3-b]pyridazin-6-yl)-3-(4-(4-methylpiperazin-1-yl)phenyl)-5,6,7,8-tetrahydro-1,6-naphthyridine], for which the Emax at 30 µM was 100% and the pEC50 was 6.24.

Take `Cc1c(N2CCc3ncc(-c4ccc(N5CCC(F)(F)C5)nc4)cc3C2)nn2cnnc2c1C` [Compound 225, 3-(6-(3,3-difluoropyrrolidin-1-yl)pyridin-3-yl)-6-(7,8-dimethyl-[1,2,4]triazolo[4,3-b]pyridazin-6-yl)-5,6,7,8-tetrahydro-1,6-naphthyridine]: the maximal effect (Emax) at 30 µM is 85% and the pEC50 was 6.36.

On to `Cc1c(N2CCc3ncc(C(=O)Nc4ccccc4F)cc3C2)nn2c(C(F)(F)F)nnc2c1C` [Compound 226, 6-(7,8-dimethyl-3-(trifluoromethyl)-[1,2,4]triazolo[4,3-b]pyridazin-6-yl)-N-(2-fluorophenyl)-5,6,7,8-tetrahydro-1,6-naphthyridine-3-carboxamide], for which the Emax at 30 µM stood at 79% and the pEC50 was 5.75.

With `Cc1c(N2CCc3ncc(C(=O)N4CCCC4)cc3C2)nn2c(C(F)(F)F)nnc2c1C` [Compound 227, (6-(7,8-dimethyl-3-(trifluoromethyl)-[1,2,4]triazolo[4,3-b]pyridazin-6-yl)-5,6,7,8-tetrahydro-1,6-naphthyridin-3-yl)(pyrrolidin-1-yl)methanone], the Emax at 30 µM came out at 76% and the pEC50 is 5.19.

Take `Cc1c(N2CCc3ncc(C(=O)NCc4cncs4)cc3C2)nn2c(C(F)(F)F)nnc2c1C` [Compound 228, 6-(7,8-dimethyl-3-(trifluoromethyl)-[1,2,4]triazolo[4,3-b]pyridazin-6-yl)-N-(thiazol-5-ylmethyl)-5,6,7,8-tetrahydro-1,6-naphthyridine-3-carboxamide]: the Emax at 30 µM was found to be 85% and the pEC50 was 5.76.

For `COc1ccc2c(c1)CCCN2c1cnc2c(c1)CN(c1nn3c(C(F)(F)F)nnc3c(C)c1C)CC2` [Compound 229, 6-(7,8-dimethyl-3-(trifluoromethyl)-[1,2,4]triazolo[4,3-b]pyridazin-6-yl)-3-(6-methoxy-3,4-dihydroquinolin-1(2H)-yl)-5,6,7,8-tetrahydro-1,6-naphthyridine], the Emax at 30 µM turned out to be 48% and the pEC50 is 6.23.

`Cc1c(N2CCc3ncc(N4CCOc5ccccc54)cc3C2)nn2c(C(F)(F)F)nnc2c1C` [Compound 230, 4-(6-(7,8-dimethyl-3-(trifluoromethyl)-[1,2,4]triazolo[4,3-b]pyridazin-6-yl)-5,6,7,8-tetrahydro-1,6-naphthyridin-3-yl)-3,4-dihydro-2H-benzo[b][1,4]oxazine]: the Emax at 30 µM was 83% and the pEC50 was 6.40.

In the case of `Cc1c(N2CCc3ncc(N4CCCc5ccccc54)cc3C2)nn2c(C(F)(F)F)nnc2c1C` [Compound 231, 3-(3,4-dihydroquinolin-1(2H)-yl)-6-(7,8-dimethyl-3-(trifluoromethyl)-[1,2,4]triazolo[4,3-b]pyridazin-6-yl)-5,6,7,8-tetrahydro-1,6-naphthyridine], the Emax at 30 µM came to 65% and the pEC50 is 5.72.

Regarding `Cc1c(N2CCc3ncc(N4CCOc5ccc(F)cc54)cc3C2)nn2c(C(F)(F)F)nnc2c1C` [Compound 232, 4-(6-(7,8-dimethyl-3-(trifluoromethyl)-[1,2,4]triazolo[4,3-b]pyridazin-6-yl)-5,6,7,8-tetrahydro-1,6-naphthyridin-3-yl)-6-fluoro-3,4-dihydro-2H-benzo[b][1,4]oxazine], the maximal effect (Emax) at 30 µM amounted to 83% and the pEC50 is 6.45.

In the case of `Cc1cc2nncn2nc1N1CCc2ncc(C(C)(C)O)cc2C1` [Compound 233, 2-(6-(7-methyl-[1,2,4]triazolo[4,3-b]pyridazin-6-yl)-5,6,7,8-tetrahydro-1,6-naphthyridin-3-yl)propan-2-ol], the maximal response (Emax) at 30 µM was 97% and the pEC50 is 5.40.

Consider `Cc1c(N2CCc3ncc(-c4cnn(C5CC5)c4)cc3C2)nn2c(C(F)(F)F)nnc2c1C` [Compound 234, 3-(1-cyclopropyl-1H-pyrazol-4-yl)-6-(7,8-dimethyl-3-(trifluoromethyl)-[1,2,4]triazolo[4,3-b]pyridazin-6-yl)-5,6,7,8-tetrahydro-1,6-naphthyridine], for which the Emax at 30 µM was 78% and the pEC50 is 6.48.

On to `Cc1c(N2CCc3ncc(-c4cnn(C5CCC5)c4)cc3C2)nn2c(C(F)(F)F)nnc2c1C` [Compound 235, 3-(1-cyclobutyl-1H-pyrazol-4-yl)-6-(7,8-dimethyl-3-(trifluoromethyl)-[1,2,4]triazolo[4,3-b]pyridazin-6-yl)-5,6,7,8-tetrahydro-1,6-naphthyridine], for which the Emax at 30 µM amounted to 76% and the pEC50 is 6.10.

Take `Cc1cnn(C)c1-c1cnc2c(c1)CN(c1nn3c(C(F)(F)F)nnc3c(C)c1C)CC2` [Compound 236, 3-(1,4-dimethyl-1H-pyrazol-5-yl)-6-(7,8-dimethyl-3-(trifluoromethyl)-[1,2,4]triazolo[4,3-b]pyridazin-6-yl)-5,6,7,8-tetrahydro-1,6-naphthyridine]: the Emax at 30 µM was found to be 65% and the pEC50 was 6.78.

With `CCn1cc(-c2cnc3c(c2)CN(c2nn4c(C(F)(F)F)nnc4c(C)c2C)CC3)cn1` [Compound 237, 6-(7,8-dimethyl-3-(trifluoromethyl)-[1,2,4]triazolo[4,3-b]pyridazin-6-yl)-3-(1-ethyl-1H-pyrazol-4-yl)-5,6,7,8-tetrahydro-1,6-naphthyridine], the Emax at 30 µM was found to be 84% and the pEC50 is 6.48.

Turning to `Cc1c(N2CCc3ncc(-c4cnn(Cc5ccccc5)c4)cc3C2)nn2c(C(F)(F)F)nnc2c1C` [Compound 238, 3-(1-benzyl-1H-pyrazol-4-yl)-6-(7,8-dimethyl-3-(trifluoromethyl)-[1,2,4]triazolo[4,3-b]pyridazin-6-yl)-5,6,7,8-tetrahydro-1,6-naphthyridine], the maximum response (Emax) at 30 µM stood at 55% and the pEC50 is 5.88.

Regarding `COc1cnc(Cl)c(-c2cnc3c(c2)CN(c2nn4c(C(F)(F)F)nnc4c(C)c2C)CC3)c1` [Compound 239, 3-(2-chloro-5-methoxypyridin-3-yl)-6-(7,8-dimethyl-3-(trifluoromethyl)-[1,2,4]triazolo[4,3-b]pyridazin-6-yl)-5,6,7,8-tetrahydro-1,6-naphthyridine], the Emax at 30 µM turned out to be 57% and the pEC50 is 6.21.

For the compound `Cc1c(N2CCc3ncc(-c4cnn(C)c4)cc3C2)nn2c(C(F)(F)F)nnc2c1C` [Compound 240, 6-(7,8-dimethyl-3-(trifluoromethyl)-[1,2,4]triazolo[4,3-b]pyridazin-6-yl)-3-(1-methyl-1H-pyrazol-4-yl)-5,6,7,8-tetrahydro-1,6-naphthyridine], the Emax at 30 µM was 77% and the pEC50 was 6.80.

Turning to `Cc1c(N2CCc3ncc(-c4ccc(N(C)C)nc4)cc3C2)nn2c(C(F)(F)F)nnc2c1C` [Compound 241, 5-(6-(7,8-dimethyl-3-(trifluoromethyl)-[1,2,4]triazolo[4,3-b]pyridazin-6-yl)-5,6,7,8-tetrahydro-1,6-naphthyridin-3-yl)-N,N-dimethylpyridin-2-amine], the Emax at 30 µM was 61% and the pEC50 is 5.91.

As to `Cc1c(N2CCc3ncc(-n4nccc4C)cc3C2)nn2c(C(F)(F)F)nnc2c1C` [Compound 242, 6-(7,8-dimethyl-3-(trifluoromethyl)-[1,2,4]triazolo[4,3-b]pyridazin-6-yl)-3-(5-methyl-1H-pyrazol-1-yl)-5,6,7,8-tetrahydro-1,6-naphthyridine], the Emax at 30 µM was 80% and the pEC50 is 6.16.

`Cc1cc(C)n(-c2cnc3c(c2)CN(c2nn4c(C(F)(F)F)nnc4c(C)c2C)CC3)n1` [Compound 243, 3-(3,5-dimethyl-1H-pyrazol-1-yl)-6-(7,8-dimethyl-3-(trifluoromethyl)-[1,2,4]triazolo[4,3-b]pyridazin-6-yl)-5,6,7,8-tetrahydro-1,6-naphthyridine]: the Emax at 30 µM came to 77% and the pEC50 was 6.14.

Regarding `Cc1c(N2CCc3ncc(-n4cccc4)cc3C2)nn2c(C(F)(F)F)nnc2c1C` [Compound 244, 6-(7,8-dimethyl-3-(trifluoromethyl)-[1,2,4]triazolo[4,3-b]pyridazin-6-yl)-3-(1H-pyrrol-1-yl)-5,6,7,8-tetrahydro-1,6-naphthyridine], the maximum response (Emax) at 30 µM was 86% and the pEC50 was 6.26.

With `Cc1c(N2CCc3ncc(-c4ccc(F)nc4)cc3C2)nn2c(C(F)(F)F)nnc2c1C` [Compound 245, 6-(7,8-dimethyl-3-(trifluoromethyl)-[1,2,4]triazolo[4,3-b]pyridazin-6-yl)-3-(6-fluoropyridin-3-yl)-5,6,7,8-tetrahydro-1,6-naphthyridine], the Emax at 30 µM came to 80% and the pEC50 is 6.17.

In the case of `Cc1c(N2Cc3cc(C(F)(F)F)cnc3C(C)C2)nn2cnnc2c1C` (stereo not shown) [Compound 246, 6-(7,8-dimethyl-[1,2,4]triazolo[4,3-b]pyridazin-6-yl)-8-methyl-3-(trifluoromethyl)-5,6,7,8-tetrahydro-1,6-naphthyridine], the Emax at 30 µM was determined as 90% and the pEC50 was 6.39.

The record behind these values is patent US20250002507A1, “7,8-DIHYDRO-5H-1,6-NAPHTHYRIDINE DERIVATIVES AS POSITIVE ALLOSTERIC MODULATORS OF THE MUSCARINIC ACETYLCHOLINE RECEPTOR M4 FOR TREATING NEUROLOGICAL AND PSYCHIATRIC DISORDERS” (Vanderbilt University, priority 2021, published 2025).
